“Also recorded” adds a separate entry of the source. Like-named read-outs stand apart in the source and are kept apart here.
Key:
Lsa-nAChR1 (α1α2β1β2) = Lsa-nAChR1 (α1α2β1β2) (Lepeophtheirus salmonis, UniProt A0A7S5PZ05+A0A7S5Q3W4+A0A7S5Q7H3+A0A7S5U9A3); assay: cell-based; assay type: cell-based; conditions: for agonist screening (pre- and co-application protocol): 1 μM; for type of effect on the receptor (agonist / partial-agonist / no effect): dose-response; for Emax: read-out: Max peak (% Ach); for inward current on average: 10 μM sazetidine A
Lsa-nAChR1 (α1α2β1β2), sequence (A0A7S5PZ05 entry or part of it): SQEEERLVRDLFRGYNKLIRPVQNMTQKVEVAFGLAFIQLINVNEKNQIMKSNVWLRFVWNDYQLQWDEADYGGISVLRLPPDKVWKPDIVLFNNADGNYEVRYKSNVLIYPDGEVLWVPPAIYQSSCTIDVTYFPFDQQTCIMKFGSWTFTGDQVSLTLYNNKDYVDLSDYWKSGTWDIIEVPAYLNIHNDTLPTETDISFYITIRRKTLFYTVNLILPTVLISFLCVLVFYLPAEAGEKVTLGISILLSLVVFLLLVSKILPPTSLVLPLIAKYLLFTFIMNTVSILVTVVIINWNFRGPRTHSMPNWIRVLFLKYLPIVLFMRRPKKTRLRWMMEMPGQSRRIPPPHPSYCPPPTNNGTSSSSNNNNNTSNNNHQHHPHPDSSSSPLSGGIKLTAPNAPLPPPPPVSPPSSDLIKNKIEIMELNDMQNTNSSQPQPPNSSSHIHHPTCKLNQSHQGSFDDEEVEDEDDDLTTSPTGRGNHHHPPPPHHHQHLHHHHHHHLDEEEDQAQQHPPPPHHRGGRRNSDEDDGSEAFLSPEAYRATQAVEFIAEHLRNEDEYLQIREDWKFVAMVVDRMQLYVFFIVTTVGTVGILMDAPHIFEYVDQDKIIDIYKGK
Lsa-nAChR1 (α1α2β1β2), sequence (A0A7S5Q3W4 entry or part of it): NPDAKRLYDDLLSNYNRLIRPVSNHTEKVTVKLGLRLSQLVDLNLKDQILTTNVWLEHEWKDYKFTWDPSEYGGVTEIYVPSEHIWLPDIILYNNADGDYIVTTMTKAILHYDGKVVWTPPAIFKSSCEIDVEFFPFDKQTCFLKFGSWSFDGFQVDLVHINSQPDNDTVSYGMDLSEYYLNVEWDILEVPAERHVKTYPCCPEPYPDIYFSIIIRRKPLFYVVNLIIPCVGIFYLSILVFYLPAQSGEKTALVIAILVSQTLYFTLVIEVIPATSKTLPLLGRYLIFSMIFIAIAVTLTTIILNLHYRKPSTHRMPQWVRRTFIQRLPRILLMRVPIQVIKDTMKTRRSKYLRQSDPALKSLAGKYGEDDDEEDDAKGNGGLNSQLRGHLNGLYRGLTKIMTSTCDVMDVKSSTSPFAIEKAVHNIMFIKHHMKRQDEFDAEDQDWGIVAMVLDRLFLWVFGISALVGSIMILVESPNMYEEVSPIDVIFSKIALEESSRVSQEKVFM
Lsa-nAChR1 (α1α2β1β2), sequence (A0A7S5U9A3 entry or part of it): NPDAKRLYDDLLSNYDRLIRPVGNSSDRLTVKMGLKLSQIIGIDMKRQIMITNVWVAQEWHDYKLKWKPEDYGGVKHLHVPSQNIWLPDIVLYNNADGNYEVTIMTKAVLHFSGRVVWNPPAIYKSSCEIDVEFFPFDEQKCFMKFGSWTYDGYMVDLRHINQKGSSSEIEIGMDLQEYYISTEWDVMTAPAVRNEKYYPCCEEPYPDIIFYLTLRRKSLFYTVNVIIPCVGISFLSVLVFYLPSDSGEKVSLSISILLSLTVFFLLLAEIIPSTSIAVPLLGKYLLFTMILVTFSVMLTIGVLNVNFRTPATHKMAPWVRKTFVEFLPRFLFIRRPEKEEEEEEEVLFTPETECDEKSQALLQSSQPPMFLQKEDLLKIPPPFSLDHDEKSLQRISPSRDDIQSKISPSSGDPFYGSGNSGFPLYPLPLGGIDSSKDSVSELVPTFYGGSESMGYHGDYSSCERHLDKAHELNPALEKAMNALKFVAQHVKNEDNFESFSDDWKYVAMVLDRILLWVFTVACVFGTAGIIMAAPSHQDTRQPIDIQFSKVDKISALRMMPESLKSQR
Lsa-nAChR1 (α1α2β1β2), sequence (A0A7S5Q7H3 entry or part of it): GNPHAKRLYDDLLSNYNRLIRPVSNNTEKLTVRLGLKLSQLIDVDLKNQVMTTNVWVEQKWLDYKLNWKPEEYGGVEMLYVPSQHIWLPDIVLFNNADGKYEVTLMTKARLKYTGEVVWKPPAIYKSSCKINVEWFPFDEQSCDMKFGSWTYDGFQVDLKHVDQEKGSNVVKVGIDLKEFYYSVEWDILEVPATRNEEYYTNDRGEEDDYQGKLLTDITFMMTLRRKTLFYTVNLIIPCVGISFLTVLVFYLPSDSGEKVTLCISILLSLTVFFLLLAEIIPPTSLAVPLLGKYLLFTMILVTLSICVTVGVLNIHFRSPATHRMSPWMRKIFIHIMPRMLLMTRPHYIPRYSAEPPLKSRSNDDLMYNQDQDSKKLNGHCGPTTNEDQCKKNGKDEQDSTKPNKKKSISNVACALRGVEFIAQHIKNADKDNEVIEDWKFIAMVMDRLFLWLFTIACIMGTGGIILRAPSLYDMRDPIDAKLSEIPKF
Protocol: (§1) Capped cRNAs were synthesized (T7 mMessage mMachine kit, Ambion, Austin, TX, USA) from the linearized vectors containing the different subunits according to the manufacturer’s protocol. cRNA samples were stored at -80°C until use. Oocytes were ordered from Ecocyte (Germany). Oocytes were microinjected using a Roboinject automatic injection system (Multi Channel Systems, Reutlingen, Germany) with 15–25 nl of cRNA solution (30–300 ng/μl per subunit) and then incubated at 18°C in sterile filtered Barth solution containing: NaCl (88 mM), KCl (1 mM), NaHCO3 (2.4 mM), HEPES (10 mM, pH 7.5), MgSO4·7H2O (0.82 mM), Ca(NO3)2·4H2O (0.33 mM), CaCl2·6H2O (0.41 mM), at pH 7.4, and supplemented with 20 μg/ml of kanamycin, 100 U/ml benzylpenicillin and 100 μg/ml streptomycin. Recordings were made 3–5 days post-cRNA injection.
(§2) Oocytes were impaled with two electrodes filled with 3 M KCl, and their membrane potentials were maintained at -80 mV throughout the experiment. Currents evoked by ACh or drugs were recorded using an automated process equipped with standard two-electrode voltage-clamp configuration (HiClamp, MultiChannel Systems). The principle of this system differs from standard electrophysiology because, instead of applying the compound in the perfusion, the oocyte is moved into a well from a 96-well microtiter plate containing the desired solution. Data were captured at 100 Hz, filtered at 10 Hz, and analyzed using proprietary data acquisition and analysis software running under Matlab (Mathworks Inc., Natick, MA, USA). Additional analyses were performed in Excel (Microsoft, Redmond, WA, USA). […] Concentration-activation curves were fitted with the equation: Y=100/1+10^H(logEC50−X) (1) where Y is the normalized response, logEC50 is the logarithm of the concentration of agonist eliciting half-maximal current amplitude, X is the log of dose or concentration, and H is the slope factor or Hill slope. Individual curves were standardized to the initial ACh (100 μM) application amplitude and subsequently averaged. EC50 values were determined from the mean of at least 3 or more cells.
(§3) Dose-response curves were obtained by sequential applications for 10s of increasing concentrations of ACh or drugs to oocytes expressing Lsa-nAChR1 or Lsa-nAChR2. A total time of 90 s time was allowed between applications for the channel to recover from any desensitization. To test the antagonistic effect of DHbE (Fig 5) and for the screening protocol (Fig 6), cells that evoked a significant current with ACh were exposed to the test compounds at 10 μM respectively 1 μM using a pre-application of 45 s and co-application of 10 s with ACh (1 μM).

Lsa-nAChR2 (α3β1β2) = Lsa-nAChR2 (α3β1β2) (Lepeophtheirus salmonis, UniProt A0A7S5PZ03+A0A7S5PZ05+A0A7S5Q7H3); assay: cell-based; assay type: cell-based; conditions: for agonist screening (pre- and co-application protocol): 1 μM; for type of effect on the receptor (agonist / partial-agonist / super-agonist / no effect): dose-response; for Max peak (% Ach): maximal peak current compared to ACh 100 μM
Protocol: as §1, §2, §3

L. salmonis (preadult 2) = assay: In-vivo exposure of preadult salmon lice to 1 mg/L for 24 h; parameters: species or system Lepeophtheirus salmonis; conditions: for Efficacy at 1.0 mg/L (%): preadult 2 parasites
Protocol: The exposure of preadult 2 parasites were conducted as described in [48]. The parasites originated from a salmon louse strain sensitive to all tested compounds [49]. The cultivation of salmon lice was conducted at the NIVA Marine Research Station Solbergstrand in the Oslofjord. Laboratory reared Atlantic salmon of were kept in 1 m^3 tanks supplied with running seawater, salinity 33–35 parts per thousand, temperature 7–9°C. Salmon lice egg strings were harvested from adult females and hatched according to [50]. The preadult salmon lice were harvested on the day of exposure. Fish were anaesthetized with 100 mg/L metacaine for 2 min. The parasites were gently removed from the fish with forceps, placed directly in glass containers filled with 1000 mL filtered seawater and exposed to the compounds within 4 h.
Each group of parasites was exposed to 1 mg/L of the test substance for 24 h. The compounds were dissolved in DMSO and an emulsifier was added immediately before dilution with water. The bottles were finally incubated at 10°C according to [49], with continuous air supply, for 24 h.
After the incubation period was over, the solution with parasites was poured out through a funnel containing a filter. Parasites remaining attached to the bottle wall were classified as alive. Immobilized parasites were collected from the filter. […] All parasites in the two groups were counted and classified according to sex and developmental stage.

[1] = Xenopus oocytes, 1:1 (α:β) ratio
[2] = EC50 (nM), Xenopus oocytes, 1:1 (α:β) ratio
[3] = calculated EC50, text values in μM, 1:1 (α:β) ratio

Compound | EC50 (Lsa-nAChR1 (α1α2β1β2)) [nM] | agonist screening (pre- and co-application protocol) (Lsa-nAChR1 (α1α2β1β2); 1:1 (α:β) ratio) | type of effect on the receptor (agonist / partial-agonist / no effect) (Lsa-nAChR1 (α1α2β1β2); 1:1 (α:β) ratio) | Emax (Lsa-nAChR1 (α1α2β1β2)) [%] | agonist screening (pre- and co-application protocol) (Lsa-nAChR2 (α3β1β2); 1:1 (α:β) ratio) | type of effect on the receptor (agonist / partial-agonist / super-agonist / no effect) (Lsa-nAChR2 (α3β1β2); 1:1 (α:β) ratio) | Max peak (% Ach) (Lsa-nAChR2 (α3β1β2); 1:1 (α:β) ratio) [%] | Efficacy at 1.0 mg/L (%) (L. salmonis (preadult 2)) | EC50 (nM) (Lsa-nAChR1 (α1α2β1β2); [1]) | EC50 (nM) (Lsa-nAChR2 (α3β1β2); [1]) | further results
CCN(Cc1ccc(Cl)nc1)/C(=C/[N+](=O)[O-])NC [Nitenpyram] | 45 | agonists | partial-agonists | 27.4 | agonists | partial-agonists | 70.1 | 17.7 |  |  | EC50 (Lsa-nAChR2 (α3β1β2)): 381 nM
CC1(C)C(C=C(Cl)Cl)C1C(=O)OC(C#N)c1cccc(Oc2ccccc2)c1 (stereo not drawn) [Cypermethrin] |  |  |  |  |  |  |  |  | No effect | No effect | 
Emamectin |  |  |  |  |  |  |  |  | No effect | No effect | 
COP(=O)(OC)SCn1c(=O)oc2cc(Cl)cnc21 [Azamethiphos] |  |  |  |  |  |  |  |  | No effect | No effect | 
CN/C(=N/CC1CCOC1)N[N+](=O)[O-] (stereo not drawn) [Dinotefuran] |  | agonists | partial-agonists | 69.8 | agonists | super-agonist | 110.2 | 100.0 |  |  | EC50 (Lsa-nAChR1 (α1α2β1β2); [2]): 220 nM; EC50 (Lsa-nAChR2 (α3β1β2); [2]): 757 nM
CN/C(=N\[N+](=O)[O-])NCc1cnc(Cl)s1 [Clothianidin] | 37 | agonists | partial-agonists | 41.9 | agonists | partial-agonists | 75.4 | 54.3 |  |  | EC50 (Lsa-nAChR2 (α3β1β2)): 81 nM
CN1COCN(Cc2cnc(Cl)s2)/C1=N\[N+](=O)[O-] [Thiamethoxam] |  |  |  |  |  |  |  | 0.0 | No effect | No effect | 
C/C(=N\C#N)N(C)Cc1ccc(Cl)nc1 [Acetamiprid] | 10300 | agonists | partial-agonist | 34.1 |  | did not affect; also recorded: did not demonstrate any ex-vivo effect |  | 89.5 |  | No effect | lethal effect / mortality of preadult parasites (L. salmonis (preadult 2)): significant lethal effect; also recorded: high mortality rates
CC1(C)[C@H](C(=O)O[C@H](C#N)c2cccc(Oc3ccccc3)c2)[C@@H]1C=C(Br)Br [Deltamethrin] |  |  |  |  |  |  |  |  | No effect | No effect | 
OCCCCC#Cc1cncc(OC[C@@H]2CCN2)c1 [sazetidine A, Sazetidine A] |  |  |  |  |  |  |  |  |  |  | inward current on average (Lsa-nAChR1 (α1α2β1β2); α:β = 1:10, n = 3): 0.22 μA; inward current on average (Lsa-nAChR1 (α1α2β1β2); α:β = 10:1, n = 3): 0.24 μA; inward current on average (Lsa-nAChR2 (α3β1β2); 10 μM sazetidine A, α:β = 10:1, n = 3 (assignment uncertain)): 0.50 μA; responsiveness to sazetidine A (Lsa-nAChR2 (α3β1β2); 10 μM, α:β = 10:1): responsive
O=[N+]([O-])NC1=NCCN1Cc1ccc(Cl)nc1 [Imidacloprid] | 69 | agonists |  | 31.8 |  | no effect; also recorded: did not affect; also recorded: did not demonstrate any ex-vivo effect |  | 100.0 |  | No effect | lethal effect / mortality of preadult parasites (L. salmonis (preadult 2)): significant lethal effect; also recorded: high mortality rates
N#C/N=C1\SCCN1Cc1ccc(Cl)nc1 [Thiacloprid] |  | agonists | partial-agonist | 6.1 | agonists | did not show any effect |  | 100.0 |  | No effect | EC50 (Lsa-nAChR1 (α1α2β1β2); [2]): 12 nM; type of effect on the receptor (agonist / partial-agonist / super-agonist / no effect) (Lsa-nAChR2 (α3β1β2); 1:1 (α:β) ratio, listed as thiacloprid): did not affect; also recorded: did not demonstrate any ex-vivo effect; lethal effect / mortality of preadult parasites (L. salmonis (preadult 2)): significant lethal effect; also recorded: high mortality rates
CN1CCC[C@H]1c1cccnc1 [Nicotine] |  |  | partial-agonist | 27.9 |  | partial-agonist | 16.1 |  |  |  | EC50 (Lsa-nAChR1 (α1α2β1β2); [2]): 3950 nM; EC50 (Lsa-nAChR1 (α1α2β1β2); [3]): 3950 nM; EC50 (Lsa-nAChR2 (α3β1β2); [2]): 9980 nM; EC50 (Lsa-nAChR2 (α3β1β2); [3]): 9980 nM

— paper PMC7419010 (PLoS Pathogens, 2020)
